Holding throughout (assay): DTP human tumour cell line panel, 48 h
The subject of test [1] is COLO 205 colon.
Test [2] has as its system HCT-15 colon.
The test system of test [3] is HL-60(TB) leukemia.
For test [4], the system named is KM12 colon.
Test [5] relates to LOX IMVI melanoma.
Test [6] relates to NCI-H522 lung.
The subject of test [7] is NCI/ADR-RES ovarian.
Test [8] relates to OVCAR-3 ovarian.
In test [9] the test system is SK-MEL-5 melanoma.
In test [10] the test system is T-47D breast.
Test [11] has as its system HOP-92 NSCLC.

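Exposure lasted 48 hours, with cells grown in 96-well plates and compounds tested at five concentrations. Abbreviation: GI50, concentration required for 50% inhibition of growth. At the TGI there is no net growth.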 A value given as a limit tells only on which side of the number the result lay.

Take `NC(=O)c1nnc2cc(F)ccc2c1N`: the TGI in test [1], in [2], in test [3], in [4], in test [5] and in test [6] was > 100 µM in each case. Further, the total growth inhibition concentration (TGI) in test [7], in [8], in test [9] and in test [10] was > 100 µM each time.
As to `O=[N+]([O-])/C(C(Cl)=C(Cl)Cl)=C1\NCCO1`, the TGI in test [1], in test [2], in [3], in [4], in [5] and in [6] was > 100 µM each time. Further, the TGI in test [7], in test [8], in test [9] and in test [10] was > 100 µM in each case.
Turning to `CNc1ccc(-c2nc3cc(C)ccc3o2)cc1`, the TGI in test [1], in test [2], in test [3], in [11], in test [4] and in test [5] was > 100 µM throughout. Also, the TGI in [6], in test [7], in [8], in [9] and in [10] was > 100 µM throughout.
Consider `CCC1C(c2cccc(OC)c2O)c2cc3c(cc2OC1N1CCCC1)OCO3` (centres undefined), for which the TGI turned out to be 40.3 µM in test [2]; 50.8 µM in test [4]; 84.6 µM in test [5]; 35.4 µM in test [6]; 54.7 µM in test [7]; 44.5 µM in [8]. Further, the TGI in test [9] worked out at 22.8 µM; in [10], 68.7 µM.
With `CC1(C)N=C(C(N)=O)c2ncn(CCO)c2N1`, the total growth inhibition concentration (TGI) in test [1], in test [2], in test [3], in test [11], in [4] and in test [5] was > 100 µM throughout. Further, the TGI in test [6], in test [7], in test [8], in test [9] and in test [10] was > 100 µM throughout.
As for `COc1ccc(S(=O)(=O)O)cc1-n1nc(C(=O)Nc2ccccc2)n[n+]1-c1cc(S(=O)(=O)[O-])ccc1OC`, the total growth inhibition concentration (TGI) in test [1], in test [2], in test [3], in test [4], in [6] and in test [7] was > 100 µM throughout. Besides, the TGI in test [8], in [9] and in [10] was > 100 µM each time.
As for `Clc1nc(Cl)c(Cl)c(Cl)n1`, the TGI in [1] amounted to 24.1 µM; in test [2], 38.1 µM; in test [3] it was 33.1 µM; in test [11], 56.4 µM; in test [4], 28.9 µM; in test [5], 27.3 µM. Further, the TGI in test [6] was determined as 35 µM; in [7] it was 59.4 µM; in [8] it was 31.7 µM; in test [9], 32.2 µM; in [10], 41 µM.
In the case of `O=C1C(F)=CC(COC(c2ccccc2)(c2ccccc2)c2ccccc2)OC1n1cc(F)c(=O)[nH]c1=O` (centres undefined), the concentration for total growth inhibition (TGI) was > 21.5 µM in test [1]; 5.95 µM in test [2]; 10.2 µM in test [3]; 5.52 µM in test [11]; 7.72 µM in test [4]; 3.54 µM in test [5]. Further, the TGI in test [6] was 3.1 µM; in [7], 8.31 µM; in test [8], 3.21 µM; in [9], 3.22 µM; in test [10] it was > 28.6 µM.
Consider `CCCCc1c(C(=O)OC(C)(C)C)cc(C#Cc2cc(C(=O)OC(C)(C)C)c(CCCC)c(C(=O)OC(C)(C)C)c2)cc1C(=O)OC(C)(C)C`, for which the concentration for total growth inhibition (TGI) in test [1], in test [2], in test [11], in [4], in test [6] and in test [7] was > 100 µM throughout. The TGI in test [8], in test [9] and in [10] was > 100 µM each time.
On to `CC(C)C(C/C=C1\CC(CO)(COC(=O)c2ccccc2)OC1=O)C(C)C` (centres undefined), for which the TGI was 25.4 µM in test [1]; 41 µM in test [2]; 29.3 µM in test [11]; 35.6 µM in [4]; 54.6 µM in test [5]; 38.5 µM in [6]. Further, the concentration for total growth inhibition (TGI) was 45 µM in test [7], 37.7 µM in test [8], 29.7 µM in test [9] and > 100 µM in [10].
Regarding `FC(F)(F)c1ccccc1N1CCN(c2nc(-c3cccs3)nc3ccc(Br)cc23)CC1`, the total growth inhibition concentration (TGI) was 65.1 µM in [1]; > 100 µM in test [2]; > 100 µM in test [3]; 83.7 µM in test [4]; > 100 µM in test [5]; > 100 µM in test [6]. Moreover, the concentration for total growth inhibition (TGI) in [7] is > 100 µM; in [8], 76.2 µM; in [9] it was 30.9 µM; in test [10] it was > 100 µM.
As to `COc1ccccc1C1SCC(=O)N1c1ccc(-c2ccc(-n3c(-c4ccccc4)nc4ccccc4c3=O)cc2)cc1` (centres undefined), the TGI in test [1], in test [2], in test [3], in [4], in [5] and in test [6] was > 100 µM each time. Also, the TGI in [7], in [8], in [9] and in [10] was > 100 µM throughout.
For `CC(=O)[C@@H]1CCC=C2CC[C@]3(C)[C@@H](CC[C@@H]4[C@@]5(C)CCCNC(C)(C)[C@@H]5CC[C@]43C)[C@H]21`, the GI50 in test [1] is 1.38 µM; in test [2] it was 1.44 µM; in [11] it was 1.37 µM; in [4], 1.93 µM; in test [6], 1.93 µM; in test [7], 1.98 µM. The GI50 in test [10] is 1.72 µM. The concentration for total growth inhibition (TGI) in test [1] came to 2.79 µM; in test [2], 2.84 µM; in test [11], 2.77 µM; in [4], 3.6 µM; in [6], 3.5 µM; in [7] it was 3.8 µM. Also, the TGI in test [10] was 3.47 µM.

The values are drawn from PubChem BioAssay (NCI).
